Source: ChEMBL document CHEMBL2311416, “The discovery of potent and selective 4-aminothienopyridines as B-Raf kinase inhibitors” (Bioorg Med Chem Lett, 2013)
Blank lines part the entries; values can stand above or below the compound they belong to.

Key:
[1] = biological target: Serine/threonine-protein kinase B-raf (Homo sapiens, UniProt P15056); test: Inhibition of B-Raf (unknown origin) by fluorescence polarization assay
Homo sapiens [2] = species on record: Homo sapiens; test: Selectivity ratio of IC50 for ERBB2 (unknown origin) to IC50 for B-Raf (unknown origin)
Homo sapiens [3] = species on record: Homo sapiens; test: Selectivity ratio of IC50 for AKT1 (unknown origin) to IC50 for B-Raf (unknown origin)
Homo sapiens [4] = species on record: Homo sapiens; test: Selectivity ratio of IC50 for BTK (unknown origin) to IC50 for B-Raf (unknown origin)
Homo sapiens [5] = species on record: Homo sapiens; test: Selectivity ratio of IC50 for SYK (unknown origin) to IC50 for B-Raf (unknown origin)
Homo sapiens [6] = species on record: Homo sapiens; test: Selectivity ratio of IC50 for JNK3 (unknown origin) to IC50 for B-Raf (unknown origin)
Homo sapiens [7] = species on record: Homo sapiens; test: Selectivity ratio of IC50 for IGF1R (unknown origin) to IC50 for B-Raf (unknown origin)
Homo sapiens [8] = species on record: Homo sapiens; test: Selectivity ratio of IC50 for ALK5 (unknown origin) to IC50 for B-Raf (unknown origin)
Homo sapiens [9] = species on record: Homo sapiens; test: Selectivity ratio of IC50 for aurora-B (unknown origin) to IC50 for B-Raf (unknown origin)
Homo sapiens [10] = species on record: Homo sapiens; test: Selectivity ratio of IC50 for ZAP70 (unknown origin) to IC50 for B-Raf (unknown origin)
Homo sapiens [11] = species on record: Homo sapiens; test: Selectivity ratio of IC50 for GSK3beta (unknown origin) to IC50 for B-Raf (unknown origin)
Homo sapiens [12] = species on record: Homo sapiens; test: Selectivity ratio of IC50 for IKK2 (unknown origin) to IC50 for B-Raf (unknown origin)
Homo sapiens [13] = species on record: Homo sapiens; test: Selectivity ratio of IC50 for ROCK1 (unknown origin) to IC50 for B-Raf (unknown origin)
Homo sapiens [14] = species on record: Homo sapiens; test: Selectivity ratio of IC50 for aurora-A (unknown origin) to IC50 for B-Raf (unknown origin)
Homo sapiens [15] = species on record: Homo sapiens; test: Selectivity ratio of IC50 for SGK1 (unknown origin) to IC50 for B-Raf (unknown origin)
Homo sapiens [16] = species on record: Homo sapiens; test: Selectivity ratio of IC50 for PKA (unknown origin) to IC50 for B-Raf (unknown origin)
Homo sapiens [17] = species on record: Homo sapiens; test: Selectivity ratio of IC50 for EGFR (unknown origin) to IC50 for B-Raf (unknown origin)

Sequence of Serine/threonine-protein kinase B-raf (P15056 whole entry): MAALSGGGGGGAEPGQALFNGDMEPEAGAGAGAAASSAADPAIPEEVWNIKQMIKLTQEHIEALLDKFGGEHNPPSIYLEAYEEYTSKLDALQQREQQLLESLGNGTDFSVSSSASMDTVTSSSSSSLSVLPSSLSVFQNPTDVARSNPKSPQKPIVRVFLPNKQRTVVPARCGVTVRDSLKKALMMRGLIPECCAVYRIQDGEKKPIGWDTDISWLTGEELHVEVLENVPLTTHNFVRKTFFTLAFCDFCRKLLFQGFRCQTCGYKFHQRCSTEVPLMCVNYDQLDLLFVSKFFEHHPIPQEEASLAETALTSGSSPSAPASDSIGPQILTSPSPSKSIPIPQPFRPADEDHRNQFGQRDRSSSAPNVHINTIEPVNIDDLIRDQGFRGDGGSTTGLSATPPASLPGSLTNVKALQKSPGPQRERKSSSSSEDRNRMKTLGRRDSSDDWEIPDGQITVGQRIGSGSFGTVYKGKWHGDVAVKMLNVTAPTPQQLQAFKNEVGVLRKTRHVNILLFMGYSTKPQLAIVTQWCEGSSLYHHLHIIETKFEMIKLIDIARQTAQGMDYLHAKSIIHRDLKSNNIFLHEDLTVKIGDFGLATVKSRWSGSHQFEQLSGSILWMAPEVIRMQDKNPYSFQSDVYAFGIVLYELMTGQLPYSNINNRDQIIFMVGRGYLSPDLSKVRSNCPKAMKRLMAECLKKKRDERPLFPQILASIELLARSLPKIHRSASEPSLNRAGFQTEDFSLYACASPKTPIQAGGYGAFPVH

IC50 [1]: 21.4 nM
SMILES: Nc1ncc(-c2cccnc2)c2scc(-c3cccc(NC(=O)Nc4cc(C(F)(F)F)ccc4F)c3)c12

IC50 [1]: 16.6 nM | Ratio IC50 (Homo sapiens [2]): > 100 | Ratio IC50 (Homo sapiens [3]): > 100 | Ratio IC50 (Homo sapiens [4]): > 100 | Ratio IC50 (Homo sapiens [5]): > 100 | Ratio IC50 (Homo sapiens [6]): > 100 | Ratio IC50 (Homo sapiens [7]): > 100 | Ratio IC50 (Homo sapiens [8]): > 100 | Ratio IC50 (Homo sapiens [9]): > 100 | Ratio IC50 (Homo sapiens [10]): > 100 | Ratio IC50 (Homo sapiens [11]): > 100 | Ratio IC50 (Homo sapiens [12]): > 100 | Ratio IC50 (Homo sapiens [13]): > 100 | Ratio IC50 (Homo sapiens [14]): > 100 | Ratio IC50 (Homo sapiens [15]): > 100 | Ratio IC50 (Homo sapiens [16]): > 100 | Ratio IC50 (Homo sapiens [17]): > 100
SMILES: Nc1ncc(-c2cccnc2)c2scc(-c3cccc(NC(=O)Nc4ccc(Cl)c(C(F)(F)F)c4)c3)c12

IC50 [1]: 30.9 nM
SMILES: Nc1ncc(-c2cccnc2)c2scc(-c3cccc(NC(=O)NC4CCCCC4)c3)c12

IC50 [1]: 13.8 nM
SMILES: Nc1ncc(-c2cccnc2)c2scc(-c3cccc(NC(=O)Nc4ccccc4)c3)c12

IC50 [1]: 9.6 nM
SMILES: COc1cccc(NC(=O)Nc2cccc(-c3csc4c(-c5cccnc5)cnc(N)c34)c2)c1

IC50 [1]: 5.1 nM | Ratio IC50 (Homo sapiens [2]): > 40 | Ratio IC50 (Homo sapiens [3]): > 40 | Ratio IC50 (Homo sapiens [4]): > 40 | Ratio IC50 (Homo sapiens [5]): > 40 | Ratio IC50 (Homo sapiens [6]): > 40 | Ratio IC50 (Homo sapiens [7]): > 40 | Ratio IC50 (Homo sapiens [8]): > 40 | Ratio IC50 (Homo sapiens [9]): > 40 | Ratio IC50 (Homo sapiens [10]): > 40 | Ratio IC50 (Homo sapiens [11]): > 40 | Ratio IC50 (Homo sapiens [12]): > 40 | Ratio IC50 (Homo sapiens [13]): > 40 | Ratio IC50 (Homo sapiens [14]): > 40 | Ratio IC50 (Homo sapiens [15]): > 40 | Ratio IC50 (Homo sapiens [16]): > 40 | Ratio IC50 (Homo sapiens [17]): > 40
SMILES: Nc1ncc(-c2cccnc2)c2scc(-c3cccc(NC(=O)c4cccc(C(F)(F)F)c4)c3)c12

IC50 [1]: > 10000 nM
SMILES: Nc1ncc(-c2cccnc2)c2scc(-c3cccc(NS(=O)(=O)c4ccccc4)c3)c12

IC50 [1]: 49 nM
SMILES: Nc1ncc(-c2cccnc2)c2scc(-c3cccc(NC(=O)c4cc(F)ccc4F)c3)c12

IC50 [1]: 25.1 nM
SMILES: Nc1ncc(-c2cccnc2)c2scc(-c3cccc(NC(=O)Nc4ccc(C(F)(F)F)cc4)c3)c12

IC50 [1]: 45 nM
SMILES: Nc1ncc(-c2cccnc2)c2scc(-c3cccc(NC(=O)Cc4cccs4)c3)c12

IC50 [1]: > 10000 nM
SMILES: Nc1cccc(-c2csc3c(-c4cccnc4)cnc(N)c23)c1

IC50 [1]: 19 nM
SMILES: Nc1ncc(-c2cccnc2)c2scc(-c3cccc(NC(=O)Cc4ccccc4)c3)c12

IC50 [1]: 1550 nM
SMILES: Nc1ncc(-c2cccnc2)c2scc(-c3cccc(NC(=O)C4CCCCC4)c3)c12

IC50 [1]: 20.9 nM
SMILES: Nc1ncc(-c2cccnc2)c2scc(-c3cccc(NC(=O)NCc4ccccc4)c3)c12

IC50 [1]: 7940 nM
SMILES: CC(C)(C)NC(=O)Nc1cccc(-c2csc3c(-c4cccnc4)cnc(N)c23)c1

IC50 [1]: 692 nM
SMILES: Cc1noc(C)c1NC(=O)Nc1cccc(-c2csc3c(-c4cccnc4)cnc(N)c23)c1

IC50 [1]: 93 nM
SMILES: Nc1ncc(-c2cccnc2)c2scc(-c3cccc(NC(=O)c4ccccc4)c3)c12

IC50 [1]: 933 nM
SMILES: Nc1ncc(-c2cccnc2)c2scc(-c3cccc(NC(=O)Nc4ccc(OCc5ccccc5)cc4)c3)c12

IC50 [1]: 4170 nM
SMILES: Cn1cccc1C(=O)Nc1cccc(-c2csc3c(-c4cccnc4)cnc(N)c23)c1

IC50 [1]: 19.5 nM
SMILES: Nc1ncc(-c2cccnc2)c2scc(-c3cccc(NC(=O)Nc4c(F)cccc4F)c3)c12
